pIC50: −log10 of the molar value.
Target: T1, GST-RIPK1 (recombinant GST-RIPK1 kinase domain (residues 1-327)) (Homo sapiens, UniProt Q13546)
T1 construct: recombinant GST-RIPK1 kinase domain (residues 1-327) enzyme; made in house; host or cells: baculovirus-transfected Sf21 insect cells
T1 sequence (Q13546 1-327): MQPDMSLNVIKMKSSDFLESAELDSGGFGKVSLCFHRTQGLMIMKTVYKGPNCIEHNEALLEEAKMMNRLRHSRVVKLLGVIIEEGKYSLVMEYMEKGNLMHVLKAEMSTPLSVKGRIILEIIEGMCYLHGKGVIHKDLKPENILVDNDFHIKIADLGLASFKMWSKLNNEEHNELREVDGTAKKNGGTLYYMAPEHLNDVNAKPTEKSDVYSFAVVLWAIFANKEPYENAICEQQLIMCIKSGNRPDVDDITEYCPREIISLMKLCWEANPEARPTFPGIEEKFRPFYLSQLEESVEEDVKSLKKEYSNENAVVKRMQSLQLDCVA
Assay: RIPK1-ADP-Glo enzymatic assay
Assay type: biochemical
Details: 25 nM GST-RIPK1, 300 μM ATP, 3 μM dephosphorylated-MBP; 30 minutes pre-incubation, 150 minutes reaction; ten-point titration
Outline: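 Ten-point 1:3 titrations from 100000 nM, 1% DMSO, were preincubated 30 min with 25 nM GST-RIPK1 (1-327) before starting with 300 μM ATP plus 3 μM dephosphorylated MBP; 150 min reaction. ADP-Glo luminescence measured ATP-to-ADP conversion; EC50 by four-parameter sigmoidal regression.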

Row | SMILES | pIC50
1 | COc1ccc(C#Cc2cncc3c2O[C@H]2C[C@@H]3N(C(=O)C34CCC(C(F)(F)F)(CC3)C4)C2)cc1 [Compound 2-65, ((2S,5S)-9-((4-methoxyphenyl)ethynyl)-2,3-dihydro-2,5-methanopyrido[3,4-f][1,4]oxazepin-4(5H)-yl)(4-(trifluoromethyl)bicyclo [2.2.1]heptan-1-yl)methanone] | 7.74
2 | COc1cccc(C#Cc2cncc3c2O[C@H]2C[C@@H]3N(C(=O)C34CCC(C(F)(F)F)(CC3)C4)C2)c1 [Compound 2-66, ((2S,5S)-9-((3-methoxyphenyl)ethynyl)-2,3-dihydro-2,5-methanopyrido[3,4-f][1,4]oxazepin-4(5H)-yl)(4-(trifluoromethyl)bicyclo [2.2.1]heptan-1-yl)methanone] | 7.74
3 | O=C(N1C[C@@H]2C[C@H]1c1cncc(C#Cc3ccncn3)c1O2)C12CCC(C(F)(F)F)(CC1)C2 [Compound 2-67, ((2S,5S)-9-(pyrimidin-4-ylethynyl)-2,3-dihydro-2,5-methanopyrido[3,4-f][1,4]oxazepin-4(5H)-yl)(4-(trifluoromethyl)bicyclo [2.2.1]heptan-1-yl)methanone] | 7.49
4 | O=C(N1C[C@@H]2C[C@H]1c1cncc(C#Cc3ncccn3)c1O2)C12CCC(C(F)(F)F)(CC1)C2 [Compound 2-68, ((2S,5S)-9-(pyrimidin-2-ylethynyl)-2,3-dihydro-2,5-methanopyrido[3,4-f][1,4]oxazepin-4(5H)-yl)(4-(trifluoromethyl)bicyclo [2.2.1]heptan-1-yl)methanone] | 6.87
5 | COc1ccnc(C#Cc2cncc3c2O[C@H]2C[C@@H]3N(C(=O)C34CCC(C(F)(F)F)(CC3)C4)C2)c1 [Compound 2-69, ((2S,5S)-9-((4-methoxypyridin-2-yl)ethynyl)-2,3-dihydro-2,5-methanopyrido[3,4-f][1,4]oxazepin-4(5H)-yl)(4-(trifluoromethyl)bicyclo [2.2.1]heptan-1-yl)methanone] | 7.39
6 | COc1ccccc1C#Cc1cncc2c1O[C@H]1C[C@@H]2N(C(=O)C23CCC(C(F)(F)F)(CC2)C3)C1 [Compound 2-70, ((2S,5S)-9-((2-methoxyphenyl)ethynyl)-2,3-dihydro-2,5-methanopyrido[3,4-f][1,4]oxazepin-4(5H)-yl)(4-(trifluoromethyl)bicyclo [2.2.1]heptan-1-yl)methanone] | 7.14
7 | Cc1nnc(C#Cc2cncc3c2O[C@H]2C[C@@H]3N(C(=O)C(C)(C)C(F)F)C2)o1 [Compound 2-71, 3,3-Difluoro-2,2-dimethyl-1-((2S,5S)-9-((5-methyl-1,3,4-oxadiazol-2-yl)ethynyl)-2,3-dihydro-2,5-methanopyrido[3,4-f][1,4]oxazepin-4(5H)-yl)propan-1-one] | 7.05

Further lines, results first:

Row | pIC50 | SMILES
8 | 7.17 | CC(C)(C(=O)N1C[C@@H]2C[C@H]1c1cncc(C#Cc3ncco3)c1O2)C(F)F [Compound 2-72]
9 | 7.72 | CC(C)(C)c1ncc(C#Cc2cncc3c2O[C@H]2C[C@@H]3N(C(=O)C(C)(C)C(F)F)C2)cn1 [Compound 2-73, 1-((2S,5S)-9-((2-(tert-butyl)pyrimidin-5-yl)ethynyl)-2,3-dihydro-2,5-methanopyrido[3,4-f][1,4]oxazepin-4(5H)-yl)-3,3-difluoro-2,2-dimethylpropan-1-one]
10 | 7.74 | CC(C)Oc1ncc(C#Cc2cncc3c2O[C@H]2C[C@@H]3N(C(=O)C(C)(C)C(F)F)C2)cn1 [Compound 2-74, 3,3-difluoro-1-((2S,5S)-9-((2-isopropoxypyrimidin-5-yl)ethynyl)-2,3-dihydro-2,5-methanopyrido[3,4-f][1,4]oxazepin-4(5H)-yl)-2,2-dimethylpropan-1-one]
11 | 7.57 | CC(C)(C(=O)N1C[C@@H]2C[C@H]1c1cncc(C#Cc3cnc4ccnn4c3)c1O2)C(F)F [Compound 2-75, 3,3-difluoro-2,2-dimethyl-1-((2S,5S)-9-(pyrazolo[1,5-a]pyrimidin-6-ylethynyl)-2,3-dihydro-2,5-methanopyrido[3,4-f][1,4]oxazepin-4(5H)-yl)propan-1-one]
